This note sets out measurements from patent US9481654B2, “Compositions and methods for inhibition of the JAK pathway” (Rigel Pharmaceuticals, Inc., priority 2006, dated 2016).

Common to all, as to type: cell-based
Test [1] relates to IL-4 stimulated CD23 upregulation in human Ramos B cells (JAK-1/JAK-3, Stat-6). In words: Assay for Ramos B-Cell Line Stimulated with IL-4 (CD23 upregulation, FACS). To be noted: Table III Example 3. In a few lines:
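Flow cytometry of CD23 staining after 20-24 h IL-4 stimulation (50 units/mL final) of human Ramos B cells in RPMI with 5% serum. Cells, 5×10^4 per point, received compound or DMSO vehicle for 1 h at 37° C prior to stimulation.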

For test [2], the system named is primary human T-cells (IL-2 induced proliferation, JAK-1/JAK-3, Stat-5). In words: Primary Human T-Cell Proliferation Assay Stimulated with IL-2 (CellTiter-Glo). To be noted: Table III Example 4. In a few lines: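 Read-out is intracellular ATP luminescence (CellTiter-Glo) after 72 h at 37 °C of IL-2-driven growth. Cells, pre-stimulated via TCR and CD28 then washed free of IL-2, were resuspended in Yssel's medium, given 80 U/mL IL-2 in the cell suspension plus duplicate compound; unstimulated wells lacked IL-2.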
(In general: In ATP-based viability assays light output follows the ATP content of the culture.)

Test [3] deals with IFNγ induced ICAM-1 (CD54) up-regulation in U937 human monocytic cells (JAK/Stat pathway). The test is described as follows: U937 IFNγ ICAM1 FACS Assay. The conditions noted are these: Table III Example 6; 10 ng/mL IFNγ, 18-24 hours. The text has this:
A549 lung epithelial cells and U937 cells up-regulate ICAM-1 (CD54) surface expression in response to a variety of different stimuli. Therefore, using ICAM-1 expression as readout, test compound effects on different signaling pathways can be assessed in the same cell type. Stimulation with IL-1β through the IL-1β receptor activates the TRAF6/NFκB pathway resulting in up-regulation of ICAM-1. IFNγ induces ICAM-1 up-regulation through activation of the JAK1/JAK2 pathway. The up-regulation of ICAM-1 can be quantified by flow cytometry across a compound dose curve and EC50 values are calculated. Exemplary assays of this type are described in greater detail in Examples 5 and 6. U937 human monocytic cells up-regulate ICAM-1 (CD54) surface expression in response to a variety of different stimuli. Therefore, using ICAM-1 expression as readout, compound effects on different signaling pathways can be assessed in the same cell type. IFNγ up-regulates ICAM-1 through activation of the JAK/Stat pathway. In this example, the up-regulation of ICAM-1 by IFNγ was assessed. […] The cells were then plated at a concentration of 100,000 cells per 160 μL in 96 well flat bottom plates. The test compounds were then diluted as follows: 10 mM test compound was diluted 1:5 in DMSO (3 μL 10 mM test compound in 12 μL DMSO), followed by a 1:3 serial dilution of test compound in DMSO (6 μL test compound serially diluted into 12 μL DMSO to give 3-fold dilutions). […] For control wells, 4 μL of DMSO was diluted into 76 μL 10% RPMI. […] The cells and compounds were then pre-incubated for 30 minutes at 37° C. with 5% CO2. […] The cells were kept under conditions for stimulation for 18-24 hours at 37° C. with 5% CO2. […] Cells were spun down at 1000 rpm for 5 minutes at 4° C., following which the supernatant was removed. […] The cells were then incubated on ice in the dark for 30 minutes. […] After suspension, the cells were centrifuged at 1000 rpm for 5 min at 4° C. […] Detection was performed using a BD LSR I System Flow Cytometer, purchased from BD Biosciences of San Jose, Calif. The live cells were gated for live scatter and the geometric mean of ICAM-APC was measured (Becton-Dickinson CellQuest software version 3.3, Franklin Lakes, N.J.). Both % live cells and ICAM-1 expression was analyzed. The assays for the test compounds were carried out in parallel with a control compound of known activity.

SMILES strings stand for the structures.

`NS(=O)(=O)c1cccc(Nc2ncc(F)c(Nc3ccc(CNS(=O)(=O)c4cccs4)cc3)n2)c1` [Compound I-36, N2-(3-aminosulfonyl)phenyl-5-fluoro-N4-[4-(thiophen-2-yl)sulfonylaminomethyl]phenyl-2,4-pyrimidinediamine]: the figures for the IC50 in test [1], in test [2] and in test [3] were 40.8 nM, 63.9 nM and 326 nM, respectively.

In the case of `CCS(=O)(=O)NCCc1ccc(Nc2nc(Nc3ccc(S(N)(=O)=O)cc3)ncc2C)cc1` [Compound I-38, N2-(4-aminosulfonyl)phenyl-N4-[4-(2-ethylsulfonylamino)ethyl]phenyl-5-methyl-2,4-pyrimidinediamine], the figures for the IC50 in test [1], in test [2] and in test [3] were 122 nM, 190 nM and 855 nM, respectively.

`Cc1ccc(Nc2ncc(F)c(Nc3ccc(CNS(=O)(=O)c4sc(N)nc4C)cc3)n2)cc1S(N)(=O)=O` [Compound I-43, N4-[4-(2-amino-4-methylthiazol-5-yl)sulfonylaminomethyl]phenyl-N2-(3-aminosulfonyl-4-methyl)phenyl-5-fluoro-2,4-pyrimidinediamine]: the half-maximal inhibitory concentration (IC50) came to 537 nM in test [1], 1790 nM in test [2] and 37800 nM in test [3].

Consider `Cc1cnc(Nc2ccc(S(N)(=O)=O)cc2)nc1Nc1ccc(CNS(=O)(=O)C2CC2)cc1` [Compound I-45, N2-(4-aminosulfonyl)phenyl-N4-(4-cyclopropylsulfonylaminomethyl)phenyl-5-methyl-2,4-pyrimidinediamine], for which the IC50 amounted to 59.8 nM in test [1], 29.3 nM in test [2] and 284 nM in test [3].

For `Cc1cnc(Nc2cccc(S(N)(=O)=O)c2)nc1Nc1ccc(CNS(=O)(=O)C2CC2)cc1` [Compound I-46, N2-(3-aminosulfonyl)phenyl-N4-(4-cyclopropylsulfonylaminomethyl)phenyl-5-methyl-2,4-pyrimidinediamine], the IC50 in test [1] was 26.8 nM; in test [2], 24.9 nM; in test [3] it was 188 nM.

With `Cc1cnc(Nc2ccc(S(N)(=O)=O)cc2)nc1Nc1ccc(CCNS(=O)(=O)C2CC2)cc1` [Compound I-53, N2-(4-aminosulfonyl)phenyl-N4-[4-(2-cyclopropylsulfonylamino)ethyl]phenyl-5-methyl-2,4-pyrimidinediamine], the concentration for half-maximal inhibition (IC50) in test [1] worked out at 131 nM; in test [2], 175 nM; in test [3], 604 nM.

Take `Cc1cnc(Nc2ccc(S(N)(=O)=O)cc2)nc1Nc1cccc(CNS(=O)(=O)C2CC2)c1` [Compound I-56, N2-(4-aminosulfonyl)phenyl-N4-(3-cyclopropylsulfonylaminomethyl)phenyl-5-methyl-2,4-pyrimidinediamine]: the IC50 in test [1] came out at 162 nM; in test [2] it was 310 nM; in test [3], 726 nM.

Take `CC(C)S(=O)(=O)NCc1ccc(Nc2nc(Nc3cccc(S(N)(=O)=O)c3)ncc2F)cc1` [Compound I-66, N2-(3-aminosulfonyl)phenyl-5-fluoro-N4-(4-isopropylsulfonylaminomethyl)phenyl-2,4-pyrimidinediamine]: the IC50 in test [1] was determined as 69.4 nM; in test [2] it was 65 nM; in test [3], 472 nM.

Consider `CCS(=O)(=O)NCc1ccc(Nc2nc(Nc3cccc(S(N)(=O)=O)c3)ncc2F)cc1Cl` [Compound I-75, N2-(3-aminosulfonyl)phenyl-N4-(3-chloro-4-ethylsulfonylaminomethyl)phenyl-5-fluoro-2,4-pyrimidinediamine], for which the values for the half-inhibitory concentration (IC50) in test [1], in test [2] and in test [3] were 181 nM, 246 nM and 1200 nM, respectively.

For `CCCN(Cc1ccc(Nc2nc(Nc3ccc(S(N)(=O)=O)cc3)ncc2C)cc1)S(=O)(=O)C1CC1` [Compound I-79, N2-(4-aminosulfonyl)phenyl-N4-[4-(N-cyclopropylsulfonyl-N-propylamino)methyl]phenyl-5-methyl-2,4-pyrimidinediamine], the concentration for half-maximal inhibition (IC50) amounted to 98 nM in test [1], 92.3 nM in test [2] and 345 nM in test [3].

For the compound `CCCN(Cc1ccc(Nc2nc(Nc3ccc(C)c(S(N)(=O)=O)c3)ncc2C)cc1)S(=O)(=O)C1CC1` [Compound I-81, N2-(3-aminosulfonyl-4-methyl)phenyl-N4-[4-(N-cyclopropylsulfonyl-N-propylamino)methyl]phenyl-5-methyl-2,4-pyrimidinediamine], the 50% inhibitory concentration (IC50) in test [1] was determined as 73.6 nM; in test [2], 89.2 nM; in test [3], 215 nM.

As to `CCC(=O)NS(=O)(=O)c1ccc(Nc2ncc(C)c(Nc3ccc(CNS(=O)(=O)C4CC4)cc3)n2)cc1` [Compound I-83, N4-(4-cyclopropylsulfonylaminomethyl)phenyl-5-methyl-N2-(4-propionylaminosulfonyl)phenyl-2,4-pyrimidinediamine], the IC50 in test [1] came to 181 nM; in test [2] it was 152 nM; in test [3] it was 266 nM.

Regarding `Cc1ccc(Nc2ncc(F)c(Nc3ccc(CNS(=O)(=O)c4cccnc4)cc3)n2)cc1S(N)(=O)=O` [Compound I-90, N2-(3-aminosulfonyl-4-methyl)phenyl-5-fluoro-N4-[4-(pyrid-3-yl)sulfonylaminomethyl]phenyl-2,4-pyrimidinediamine], the IC50 is 152 nM in test [1], 349 nM in test [2] and 2430 nM in test [3].

Take `NS(=O)(=O)c1cccc(Nc2ncc(F)c(Nc3ccc(CNS(=O)(=O)c4cccnc4)cc3)n2)c1` [Compound I-95, N2-(3-aminosulfonyl)phenyl-5-fluoro-N4-[4-(pyrid-3-yl)sulfonylaminomethyl]phenyl-2,4-pyrimidinediamine]: the IC50 in test [1] came to 160 nM; in test [2], 286 nM; in test [3], 2690 nM.

As to `Cc1cnc(Nc2ccc(S(N)(=O)=O)cc2)nc1Nc1ccc(CNS(=O)(=O)CC(F)(F)F)cc1` [Compound I-96, N2-(4-aminosulfonyl)phenyl-5-methyl-N4-(4-trifluoroethylsulfonylaminomethyl)phenyl-2,4-pyrimidinediamine], the half-inhibitory concentration (IC50) in test [1] turned out to be 74.4 nM; in test [2], 105 nM; in test [3] it was 3670 nM.

On to `Cc1ccc(Nc2ncc(C)c(Nc3ccc(CNS(=O)(=O)CC(F)(F)F)cc3)n2)cc1S(N)(=O)=O` [Compound I-98, N2-(3-aminosulfonyl-4-methyl)phenyl-5-methyl-N4-(4-trifluoroethylsulfonylaminomethyl)phenyl-2,4-pyrimidinediamine], for which the results for the IC50 in test [1], in test [2] and in test [3] were 25.3 nM, 52.1 nM and 152 nM, respectively.

For the compound `Cc1cnc(Nc2cccc(S(N)(=O)=O)c2)nc1Nc1ccc(CNS(=O)(=O)c2cccnc2)cc1` [Compound I-100, N2-(3-aminosulfonyl)phenyl-5-methyl-N4-[4-(pyrid-3-yl)sulfonylaminomethyl]phenyl-2,4-pyrimidinediamine], the IC50 in test [1] came out at 102 nM; in test [2], 153 nM; in test [3], 489 nM.

Take `Cc1ccc(Nc2ncc(C)c(Nc3ccc(CNS(=O)(=O)c4cccnc4)cc3)n2)cc1S(N)(=O)=O` [Compound I-101, N2-(3-aminosulfonyl-4-methyl)phenyl-5-methyl-N4-[4-(pyrid-3-yl)sulfonylaminomethyl]phenyl-2,4-pyrimidinediamine]: the IC50 is 62.4 nM in test [1], 224 nM in test [2] and 433 nM in test [3].

For `Cc1ccc(Nc2ncc(C)c(Nc3cccc(CN(C)S(=O)(=O)C4CC4)c3)n2)cc1S(N)(=O)=O` [Compound I-122, N2-(3-aminosulfonyl-4-methyl)phenyl-N4-[3-(N-cyclopropylsulfonyl-N-methyl)aminomethyl]phenyl-5-methyl-2,4-pyrimidinediamine], the figures for the IC50 in test [1], in test [2] and in test [3] were 81.6 nM, 88.3 nM and 155 nM, respectively.

The IC50 is the point on the concentration scale where inhibition reaches its midpoint. A lower IC50 goes with higher potency.
